Measured values from ChEMBL document CHEMBL5528082 (J Med Chem, 2024).
pIC50: −log10 of the molar value. ≈ marks a conversion by molar mass, not a printed value.

Assays:
[1] = system: Staphylococcus aureus; assay: Antibacterial activity against Staphylococcus aureus USA 300 incubated for 24 hrs by CLSI based broth microdilution assay; format: functional
[2] = biological target: Dihydrofolate reductase (Staphylococcus aureus, UniProt P0A017); assay: Inhibition of Staphylococcus aureus DHFR expressed in Escherichia coli BL21 (DE3) using DHF as substrate preincubated for 10 mins followed by substrate addition measured for 10 mins in presence of NADPH by spectrophotometry
[3] = system: Staphylococcus aureus; assay: Antibacterial activity against TMP-resistant Staphylococcus aureus BHKS 721 incubated for 24 hrs by CLSI based broth microdilution assay; format: functional
[4] = Cytotoxicity against HEK293 cells assessed as inhibition rate of cell growth at 100 uM incubated for 24 hrs by CCK8 assay relative to control; format: toxicity, cell-based; conditions: human
[5] = system: Staphylococcus aureus; assay: Antibacterial activity against TMP-resistant Staphylococcus aureus BHKS 723 incubated for 24 hrs by CLSI based broth microdilution assay; format: functional
[6] = system: Dihydrofolate reductase (Staphylococcus aureus); conditions: dose 100.0 nM
[7] = Cytotoxicity against human NCM460 cells assessed as inhibition rate of cell growth at 100 uM incubated for 24 hrs by CCK8 assay relative to control; format: toxicity, cell-based
[8] = system: Staphylococcus aureus; assay: Antibacterial activity against TMP-resistant Staphylococcus aureus BHKS 227 incubated for 24 hrs by CLSI based broth microdilution assay; format: functional
[9] = system: Staphylococcus aureus; assay: Antibacterial activity against Staphylococcus aureus ATCC 25923 incubated for 24 hrs by CLSI based broth microdilution assay; format: functional
[10] = biological target: T1, Dihydrofolate reductase (Homo sapiens, UniProt P00374); assay: Inhibition of human DHFR
T1 sequence (P00374 whole entry): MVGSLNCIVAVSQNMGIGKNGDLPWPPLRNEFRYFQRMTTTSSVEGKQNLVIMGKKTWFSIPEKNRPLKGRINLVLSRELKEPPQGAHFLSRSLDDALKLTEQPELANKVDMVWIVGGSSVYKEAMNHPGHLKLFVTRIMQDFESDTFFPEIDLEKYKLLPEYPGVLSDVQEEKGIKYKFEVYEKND

[11] = system: Mycobacterium tuberculosis; assay: Antibacterial activity against Mycobacterium tuberculosis H37Ra; format: functional
[12] = biological target: T2, Dihydrofolate reductase (Mycobacterium tuberculosis, UniProt P9WNX1); assay: Inhibition of Mycobacterium tuberculosis DHFR
T2 sequence (P9WNX1 whole entry): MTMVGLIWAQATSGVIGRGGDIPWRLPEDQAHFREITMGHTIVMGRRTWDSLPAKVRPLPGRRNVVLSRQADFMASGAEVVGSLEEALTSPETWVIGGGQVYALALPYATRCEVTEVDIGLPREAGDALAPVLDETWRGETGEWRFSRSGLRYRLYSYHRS

[13] = system: Staphylococcus aureus; assay: Antibacterial activity against TMP-resistant Staphylococcus aureus BHKS 231 incubated for 24 hrs by CLSI based broth microdilution assay; format: functional

Sequence of Dihydrofolate reductase (Staphylococcus aureus, UniProt P0A017) (P0A017 whole entry): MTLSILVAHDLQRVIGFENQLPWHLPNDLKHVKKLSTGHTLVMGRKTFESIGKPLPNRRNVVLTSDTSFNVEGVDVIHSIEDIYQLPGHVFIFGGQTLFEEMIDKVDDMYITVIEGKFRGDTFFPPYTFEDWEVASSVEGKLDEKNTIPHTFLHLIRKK

COc1cc(C(C)C)c(Oc2cnc(N)nc2N)cc1-c1ccc(C(C)C)cc1
MIC [1]: 0.25 µg/mL (≈ 0.637 µM) | pIC50 [2]: 8.74 | MIC [3]: 4 µg/mL (≈ 10.2 µM) | inhibition at 24 h, 100 µM [4]: 46.9% | MIC [5]: 4 µg/mL (≈ 10.2 µM) | inhibition [6]: 55.7% | inhibition at 24 h, 100 µM [7]: 44% | MIC [8]: 1 µg/mL (≈ 2.55 µM) | MIC [9]: 0.25 µg/mL (≈ 0.637 µM) | pIC50 [10]: 5.54

COc1cc(C(C)C)c(Oc2cnc(N)nc2N)cc1I
MIC [1]: 0.063 µg/mL (≈ 0.157 µM) | pIC50 [2]: 7.48 | MIC [3]: 8 µg/mL (≈ 20 µM) | inhibition at 24 h, 100 µM [4]: 26.1% | MIC [5]: 8 µg/mL (≈ 20 µM) | inhibition at 24 h, 100 µM [7]: 32.1% | MIC [8]: 0.5 µg/mL (≈ 1.25 µM) | MIC [9]: 0.125 µg/mL (≈ 0.312 µM) | MIC [11]: 50 µg/mL (≈ 125 µM) | pIC50 [10]: 3.75 | pIC50 [12]: 5.46

COc1cc(C(C)C)c(Oc2cnc(N)nc2N)cc1-c1ccc2c(c1)OCO2
MIC [1]: 0.25 µg/mL (≈ 0.634 µM) | pIC50 [2]: 7.46 | MIC [3]: 32 µg/mL (≈ 81.1 µM) | inhibition at 24 h, 100 µM [4]: 26.8% | MIC [5]: 16 µg/mL (≈ 40.6 µM) | inhibition [6]: > 100% | inhibition at 24 h, 100 µM [7]: 62.3% | MIC [8]: 2 µg/mL (≈ 5.07 µM) | MIC [9]: 0.5 µg/mL (≈ 1.27 µM)

COc1cc(C(C)C)c(Oc2cnc(N)nc2N)cc1-c1ccc(C(C)(C)C)cc1
MIC [1]: 0.5 µg/mL (≈ 1.23 µM) | pIC50 [2]: 7.42 | MIC [3]: 4 µg/mL (≈ 9.84 µM) | inhibition at 24 h, 100 µM [4]: 20.7% | MIC [5]: 4 µg/mL (≈ 9.84 µM) | inhibition [6]: 54.3% | inhibition at 24 h, 100 µM [7]: 65.6% | MIC [8]: 4 µg/mL (≈ 9.84 µM) | MIC [9]: 0.5 µg/mL (≈ 1.23 µM)

CCCCOc1cc(C(C)C)c(Oc2cnc(N)nc2N)cc1I
MIC [1]: 0.125 µg/mL (≈ 0.283 µM) | pIC50 [2]: 7.44 | MIC [3]: 4 µg/mL (≈ 9.04 µM) | inhibition at 24 h, 100 µM [4]: 42.2% | MIC [5]: 8 µg/mL (≈ 18.1 µM) | inhibition [6]: 50.8% | inhibition at 24 h, 100 µM [7]: 72.9% | MIC [8]: 1 µg/mL (≈ 2.26 µM) | MIC [9]: 0.125 µg/mL (≈ 0.283 µM)

CCCOc1cc(C(C)C)c(Oc2cnc(N)nc2N)cc1I
MIC [1]: 0.016 µg/mL (≈ 0.0374 µM) | pIC50 [2]: 7.35 | MIC [3]: > 32 µg/mL | inhibition at 24 h, 100 µM [4]: 47.4% | MIC [5]: > 32 µg/mL | inhibition [6]: 43.8% | inhibition at 24 h, 100 µM [7]: 66.7% | MIC [8]: 0.5 µg/mL (≈ 1.17 µM) | MIC [9]: 0.016 µg/mL (≈ 0.0374 µM)

COc1cc(C(C)C)c(Oc2cnc(N)nc2N)cc1-c1cccc(C(F)(F)F)c1
MIC [1]: 1 µg/mL (≈ 2.39 µM) | pIC50 [2]: 6.62 | MIC [3]: 16 µg/mL (≈ 38.2 µM) | inhibition at 24 h, 100 µM [4]: 51.5% | MIC [5]: 16 µg/mL (≈ 38.2 µM) | inhibition [6]: 82.9% | inhibition at 24 h, 100 µM [7]: 74.6% | MIC [8]: 4 µg/mL (≈ 9.56 µM) | MIC [9]: 1 µg/mL (≈ 2.39 µM)

Cc1cc(NS(=O)(=O)c2ccc(N)cc2)no1 [SULFAMETHOXAZOLE]
MIC [1]: 2 µg/mL (≈ 7.9 µM) | MIC [3]: 0.5 µg/mL (≈ 1.97 µM) | MIC [13]: 256 µg/mL (≈ 1010 µM) | MIC [5]: 4 µg/mL (≈ 15.8 µM) | MIC [8]: 4 µg/mL (≈ 15.8 µM) | MIC [9]: 2 µg/mL (≈ 7.9 µM)

COc1cc(C(C)C)c(Oc2cnc(N)nc2N)cc1-c1ccc(F)cc1
MIC [1]: 0.25 µg/mL (≈ 0.679 µM) | pIC50 [2]: 7.16 | MIC [3]: 16 µg/mL (≈ 43.4 µM) | inhibition at 24 h, 100 µM [4]: 46.9% | MIC [5]: 16 µg/mL (≈ 43.4 µM) | inhibition [6]: 27.2% | inhibition at 24 h, 100 µM [7]: 60.3% | MIC [8]: 1 µg/mL (≈ 2.71 µM) | MIC [9]: 0.25 µg/mL (≈ 0.679 µM)

COc1cc(C(C)C)c(Oc2cnc(N)nc2N)cc1-c1ccc(Cl)c(C(F)(F)F)c1
MIC [1]: 0.5 µg/mL (≈ 1.1 µM) | pIC50 [2]: 6.85 | MIC [3]: 4 µg/mL (≈ 8.83 µM) | inhibition at 24 h, 100 µM [4]: 41% | MIC [5]: 4 µg/mL (≈ 8.83 µM) | inhibition [6]: 67.4% | inhibition at 24 h, 100 µM [7]: 37.8% | MIC [8]: 2 µg/mL (≈ 4.42 µM) | MIC [9]: 0.5 µg/mL (≈ 1.1 µM)

COc1cc(C(C)C)c(Oc2cnc(N)nc2N)cc1-c1ccc(C)cc1
MIC [1]: 0.5 µg/mL (≈ 1.37 µM) | pIC50 [2]: 7.41 | MIC [3]: 16 µg/mL (≈ 43.9 µM) | inhibition at 24 h, 100 µM [4]: 2.04% | MIC [5]: 16 µg/mL (≈ 43.9 µM) | inhibition [6]: 9.88% | inhibition at 24 h, 100 µM [7]: 55.5% | MIC [8]: 2 µg/mL (≈ 5.49 µM) | MIC [9]: 0.5 µg/mL (≈ 1.37 µM)

COc1ccc(Oc2cnc(N)nc2N)cc1-c1ccc(OC(F)(F)F)cc1
MIC [1]: 0.002 µg/mL (≈ 0.0051 µM) | pIC50 [2]: 7.80 | MIC [3]: 4 µg/mL (≈ 10.2 µM) | inhibition at 24 h, 100 µM [4]: 39.4% | MIC [5]: 4 µg/mL (≈ 10.2 µM) | inhibition [6]: 51.1% | inhibition at 24 h, 100 µM [7]: 69.9% | MIC [8]: 2 µg/mL (≈ 5.1 µM) | MIC [9]: 0.002 µg/mL (≈ 0.0051 µM)

COc1cc(C(C)C)c(Oc2cnc(N)nc2N)cc1-c1ccc(OC(F)(F)F)cc1
MIC [1]: 0.25 µg/mL (≈ 0.575 µM) | pIC50 [2]: 7.72 | MIC [3]: 8 µg/mL (≈ 18.4 µM) | inhibition at 24 h, 100 µM [4]: 43.5% | MIC [5]: 8 µg/mL (≈ 18.4 µM) | inhibition [6]: > 100% | inhibition at 24 h, 100 µM [7]: 63.6% | MIC [8]: 1 µg/mL (≈ 2.3 µM) | MIC [9]: 0.25 µg/mL (≈ 0.575 µM)
